Measurements taken from paper PMC8286840, “Identifying SARS-CoV-2 antiviral compounds by screening for small molecule inhibitors of Nsp3 papain-like protease” (Biochemical Journal, 2021).
Structures can show the parent of a compound that is named as a salt. Where two headings read alike, the source gives them in different places.

How the values were obtained:
[1] = target: T1, SARS-CoV-2 PLpro (nsp3 1564–1878) (Severe acute respiratory syndrome coronavirus 2, UniProt P0DTD1); experiment: biochemical; parameters: FRET-quenched peptide (Pro3) cleavage by PLpro, 10 min pre-incubation, slope over 20 min, normalised to no-compound control; conditions: low concentration screen, read-out: % of control remaining
[2] = target: T1, SARS-CoV-2 PLpro (nsp3 1564–1878); experiment: biochemical; parameters: FRET-quenched peptide (Pro3) cleavage by PLpro, 10 min pre-incubation, slope over 20 min, normalised to no-compound control; conditions: high concentration screen, read-out: % of control remaining

SMILES: CC(N)=NCCCCC(N)C(=O)O (stereo in doubt) [L-N6-(1-Iminoethyl)lysine hydrochloride]
- remaining activity at 1.25 µM ([1]; Well no.=871): 107%
- remaining activity at 3.75 µM ([2]; Well no.=871): 102%

SMILES: Nc1ncnc2c1c(-c1cccc(OCc3ccccc3)c1)cn2C1CC(CN2CCCC2)C1 (stereo in doubt) [NVP-ADW742]
- remaining activity at 1.25 µM ([1]; Well no.=4629): 95.7%
- remaining activity at 3.75 µM ([2]; Well no.=4629): 93.2%

SMILES: CC[C@@H](C)C(=O)O[C@H]1[C@H](O)[C@H]2[C@@H](CN3C[C@@H](C)CC[C@H]3[C@@]2(C)O)[C@@H]2C[C@]34O[C@]5(O)[C@@H](OC(=O)[C@](C)(O)[C@@H](C)O)CC[C@@]3(C)[C@@H]5[C@@H](OC(C)=O)[C@@H](OC(C)=O)[C@H]4[C@@]21O (stereo in doubt) [Protoveratrine B]
- remaining activity at 1.25 µM ([1]; Well no.=3454): 97.9%
- remaining activity at 3.75 µM ([2]; Well no.=3454): 98.3%

SMILES: CCCCC1(C2CCCC2)Cc2cc(OCC(=O)O)c(Cl)c(Cl)c2C1=O (stereo in doubt) [R(+)-Butylindazone]
- remaining activity at 1.25 µM ([1]; Well no.=640): 97.4%
- remaining activity at 3.75 µM ([2]; Well no.=640): 101%

SMILES: COc1cc(C=CC(=O)O)cc(OC)c1O (stereo in doubt) [Sinapinic acid]
- remaining activity at 1.25 µM ([1]; Well no.=6150): 102%
- remaining activity at 3.75 µM ([2]; Well no.=6150): 102%

SMILES: NCC=CC(=O)O (stereo in doubt) [cis-4-Aminocrotonic acid]
- remaining activity at 1.25 µM ([1]; Well no.=114): 97.3%
- remaining activity at 3.75 µM ([2]; Well no.=114): 98.2%

SMILES: CC(C)(CN1C(=O)C(Cl)=C(Cl)C1=O)CN1C(=O)C(Cl)=C(Cl)C1=O [1,1'-(2,2-dimethylpropane-1,3-diyl)bis(3,4-dichloro-1H-pyrrole-2,5-dione)]
- remaining activity at 1.25 µM ([1]; Well no.=5957): 102%
- remaining activity at 3.75 µM ([2]; Well no.=5957): 105%

SMILES: COc1cc(C(C)=O)cc(-c2cc(C(C)=O)cc(OC)c2O)c1O [1,1'-(6,6'-dihydroxy-5,5'-dimethoxy-[1,1'-biphenyl]-3,3'-diyl)bis(ethan-1-one)]
- remaining activity at 1.25 µM ([1]; Well no.=5981): 101%
- remaining activity at 3.75 µM ([2]; Well no.=5981): 96.6%

SMILES: C[N+]1(C)CCN(c2ccccc2)CC1 [1,1-Dimethyl-4-phenyl-piperazinium iodide]
- remaining activity at 1.25 µM ([1]; Well no.=741): 92%
- remaining activity at 3.75 µM ([2]; Well no.=741): 92.3%

SMILES: CCCCCCCCCCCCCCCCCCOP(=O)([O-])OC1CC[N+](C)(C)CC1 [1,1-dimethylpiperidinium-4-yl octadecyl phosphate]
- remaining activity at 1.25 µM ([1]; Well no.=5460): 102%
- remaining activity at 3.75 µM ([2]; Well no.=5460): 107%

SMILES: BrC1C(Br)C(Br)C(Br)C(Br)C1Br (centres unmarked) [1,2,3,4,5,6-Hexabromocyclohexane - 1,2,3,4,5,6-Hexabromocyclohexane]
- remaining activity at 1.25 µM ([1]; Well no.=2524): 96.3%
- remaining activity at 3.75 µM ([2]; Well no.=2524): 97.7%

SMILES: CCCCCCCCCC(=O)OCC(CO)OC(=O)CCCCCCCCC (centres unmarked) [1,2-Didecanoyl-glycerol (10:0)]
- remaining activity at 1.25 µM ([1]; Well no.=4474): 101%
- remaining activity at 3.75 µM ([2]; Well no.=4474): 95.2%

SMILES: CCCCCCCC(=O)OC[C@H](CO)OC(=O)CCCCCCC [1,2-Dioctanoyl-SN-glycerol]
- remaining activity at 1.25 µM ([1]; Well no.=4476): 103%
- remaining activity at 3.75 µM ([2]; Well no.=4476): 107%

SMILES: CCCCCCCC/C=C\CCCCCCCC(=O)OCC(CO)OC(=O)CCCCCCC/C=C\CCCCCCCC (centres unmarked) [1,2-Dioleoyl-glycerol (18:1)]
- remaining activity at 1.25 µM ([1]; Well no.=4478): 96%
- remaining activity at 3.75 µM ([2]; Well no.=4478): 100%

SMILES: S=c1ccss1 [1,2-Dithiole-3-thione]
- remaining activity at 1.25 µM ([1]; Well no.=4139): 93.1%
- remaining activity at 3.75 µM ([2]; Well no.=4139): 94.1%

SMILES: CCCc1c(-c2ccc(O)cc2)nn(-c2ccc(O)cc2)c1-c1ccc(O)cc1 [1,3,5-tris(4-hydroxyphenyl)-4-propyl-1H-pyrazole]
- remaining activity at 1.25 µM ([1]; Well no.=468): 105%
- remaining activity at 3.75 µM ([2]; Well no.=468): 109%

SMILES: CCn1c(=O)c2[nH]c(-c3ccccc3)nc2n(CC)c1=O [1,3-Diethyl-8-phenylxanthine]
- remaining activity at 1.25 µM ([1]; Well no.=204): 98.5%
- remaining activity at 3.75 µM ([2]; Well no.=204): 100%

SMILES: Cn1c(=O)c2[nH]c(-c3ccccc3)nc2n(C)c1=O [1,3-Dimethyl-8-phenylxanthine]
- remaining activity at 1.25 µM ([1]; Well no.=952): 103%
- remaining activity at 3.75 µM ([2]; Well no.=952): 99.2%

SMILES: Cn1c(=O)c2[nH]c(=O)[nH]c2n(C)c1=O [1,3-Dimethyluric acid]
- remaining activity at 1.25 µM ([1]; Well no.=6819): 99.4%
- remaining activity at 3.75 µM ([2]; Well no.=6819): 95.7%

SMILES: CCCn1c(=O)c2c(ncn2C)n(CCC)c1=O [1,3-Dipropyl-7-methylxanthine]
- remaining activity at 1.25 µM ([1]; Well no.=448): 102%
- remaining activity at 3.75 µM ([2]; Well no.=448): 101%

SMILES: N=C(N)SCCc1cccc(CCSC(=N)N)c1 [1,3-PBIT dihydrobromide]
- remaining activity at 1.25 µM ([1]; Well no.=1159): 104%
- remaining activity at 3.75 µM ([2]; Well no.=1159): 104%

SMILES: OC[C@H]1NC[C@@H](O)[C@@H]1O [1,4-Dideoxy-1,4-imino-D-arabinitol]
- remaining activity at 1.25 µM ([1]; Well no.=589): 102%
- remaining activity at 3.75 µM ([2]; Well no.=589): 100%

SMILES: OC[C@@H](O)[C@H]1NC[C@@H](O)[C@H]1O [1,4-Dideoxy-1,4-imino-D-mannitol hydrochloride]
- remaining activity at 1.25 µM ([1]; Well no.=536): 101%
- remaining activity at 3.75 µM ([2]; Well no.=536): 99.2%

SMILES: N=C(N)SCCc1ccc(CCSC(=N)N)cc1 [1,4-PBIT dihydrobromide]
- remaining activity at 1.25 µM ([1]; Well no.=1255): 104%
- remaining activity at 3.75 µM ([2]; Well no.=1255): 105%

SMILES: O=c1[nH]ccc2c(O)cccc12 [1,5-Isoquinolinediol]
- remaining activity at 1.25 µM ([1]; Well no.=827): 97.8%
- remaining activity at 3.75 µM ([2]; Well no.=827): 99.5%

SMILES: Cn1c(=O)[nH]c2ncn(C)c2c1=O [1,7-Dimethylxanthine]
- remaining activity at 1.25 µM ([1]; Well no.=691): 98.6%
- remaining activity at 3.75 µM ([2]; Well no.=691): 99.7%

SMILES: NCCCCCCCCCCN [1,10-Diaminodecane]
- remaining activity at 1.25 µM ([1]; Well no.=642): 94.7%
- remaining activity at 3.75 µM ([2]; Well no.=642): 91.7%

SMILES: c1cnc2c(c1)ccc1cccnc12 [1,10-Phenanthroline monohydrate]
- remaining activity at 1.25 µM ([1]; Well no.=1259): 101%
- remaining activity at 3.75 µM ([2]; Well no.=1259): 101%

SMILES: c1ccc2c(N3CCNCC3)cccc2c1 [1-(1-Naphthyl)piperazine hydrochloride]
- remaining activity at 1.25 µM ([1]; Well no.=1467): 99.5%
- remaining activity at 3.75 µM ([2]; Well no.=1467): 99.2%

SMILES: Clc1ccc(C(c2ccccc2Cl)C(Cl)Cl)cc1 (centres unmarked) [1-(2-Chlorophenyl)-1-(4-chlorophenyl)-2,2-dichloroethane]
- remaining activity at 1.25 µM ([1]; Well no.=76): 96.7%
- remaining activity at 3.75 µM ([2]; Well no.=76): 97.1%

SMILES: COc1ccccc1N1CCNCC1 [1-(2-Methoxyphenyl)piperazine hydrochloride]
- remaining activity at 1.25 µM ([1]; Well no.=1181): 104%
- remaining activity at 3.75 µM ([2]; Well no.=1181): 102%

SMILES: O=c1[nH]c2ccccc2n1CCN1CCN(c2cccc(C(F)(F)F)c2)CC1 [1-(2-{4-[3-(trifluoromethyl)phenyl]-1-piperazinyl}ethyl)-1,3-dihydro-2H-benzimidazol-2-one]
- remaining activity at 1.25 µM ([1]; Well no.=5866): 103%
- remaining activity at 3.75 µM ([2]; Well no.=5866): 97.9%

SMILES: CCCCCC(=O)c1c(O)c(Cl)c(OC)c(Cl)c1O [1-(3,5-dichloro-2,6-dihydroxy-4-methoxyphenyl)-1-hexanone]
- remaining activity at 1.25 µM ([1]; Well no.=5626): 99.3%
- remaining activity at 3.75 µM ([2]; Well no.=5626): 102%

SMILES: Clc1cccc(N2CCNCC2)c1 [1-(3-Chlorophenyl)piperazine dihydrochloride]
- remaining activity at 1.25 µM ([1]; Well no.=36): 106%
- remaining activity at 3.75 µM ([2]; Well no.=36): 104%
